Literature values in patent publication US7812020B2, “Substituted pyridine derivatives” (priority 2005, dated 2010).

Key:
[1] = system: animal models of neuropathic pain; conditions: in vivo
rat [2] = system: rat
[3] = system: animal models of anxiety-like behaviour; conditions: in vivo
rat [4] = conditions: following kainic acid-induced status epilepticus in the rat
amygdala kindling model = conditions: complex partial seizures
rats and mice = conditions: oral and intraperitoneal administration; electrically induced seizures, pentylenetetrazole, picrotoxin, NMDA, DBA/2 mouse
[5] = system: K(+) current in neuronal cells
epileptic patients = conditions: clinical trials

SMILES: CCOC(=O)Nc1ccc(NCc2ccc(F)cc2)cc1N [Retigabine, N-(2-amino-4-(4-fluorobenzylamino)-phenyl)carbamic acid ethyl ester]
- effect in neuropathic pain models [1]: beneficial
- progression of hippocampal kindling (rat [2]): delay the progression of hippocampal kindling
- activity in anxiety-like behaviour models [3]: active
- limbic neurodegeneration and markers of apoptosis (rat [4]): prevent limbic neurodegeneration and the expression of markers of apoptosis
- activity in amygdala kindling model (amygdala kindling model): active
- anticonvulsant activity (rats and mice): active
- effect on K(+) current [5]: activate a K(+) current
- incidence of seizures (epileptic patients): effectiveness in reducing the incidence of seizures
